Laboratory results taken from patent US8841310B2, “Combinations of a pyrimidine containing NNRTI with RT inhibitors” (Janssen R & D Ireland, priority 2003, dated 2014).
≈ marks a conversion by molar mass, not a printed value. Where “and” joins values, the source holds several entries; their conditions need not be identical. Equal values may be shown once. Read-outs that look alike come from different tables or passages of the source.

Assays:
[1] = system: HIV-1 double resistant mutant K103N+Y181C; experiment: Development of resistance in vitro, starting from double mutant; type: cell-based
Description: (§1) Emerging virus was collected for pheno- and genotyping. Cultures without evidence of virus replication were further sub-cultivated in the presence of the same concentration of inhibitor for a total duration of 30 days (10 passages).

[2] = system: wild type HIV-1; experiment: Development of resistance in vitro, MT4 cells, high multiplicity of infection; type: cell-based; details: wild type HIV-1, >1 infectious virus per cell, all tested concentrations, total 30 days
Description: as §1

[3] = system: monotropic HIV strain Ba-L; experiment: MO-DC/CD4(+) T cell co-culture model of sexual HIV transmission; type: cell-based; details: Human immunodeficiency virus 1, BAL, T-cell, 336 h, read-out: EC50 (concentration suppressing 50% of viral replication)
Description: Immature monocyte derived dendritic cells (immMO-DC) represent a good model for interstitial dendritic cells, which are early targets during sexual HIV transmission and important initiators of the immune response. These immMO-DC were used in “in vitro” models to test the prevention of HIV infection via sexual intercourse or related intimate contact between partners.
For instance, in one model, monocyte-derived dendritic cells (MO-DC) were infected for 2-hours with the monotropic HIV strain Ba-L at a multiplicity of infection (MOI) of 10^−3. After infection, cells were washed 6 times and resuspended in 10% BCS at 400.000 cells/ml. Autologous CD4(+) T cells were purified out of the lymphocyte fraction of the same elutration as the MO-DC and used at a concentration of 2×10^6 cells/ml ((ratio MO-DC/CD4(+) T: 1/5).
A serial dilution of a compound of formula (I) (test compound) was added to the MO-DC/CD4(+) T cell co-cultures. Each experiment was done in 96-well plates, in which each cup contained 50 μl of MO-DC, 50 μl of CD4(+) T cells and 100 μl of test compound. Half of the culture medium, with test compound, was refreshed twice weekly. Supernatants were analysed in ELISA after 14 days of culture. To determine antiviral activity, the test compound concentration able to suppress 50% of the viral replication at the end of the primary cultures (EC50) was measured.

[4] = Cardiovascular and pulmonary safety in vitro; details: concentrations covering or exceeding the anti-viral concentration in vitro
[5] = system: HIV-1 mutant 188L; experiment: MT-4 cell-based antiviral assay, SDM mutant
Procedure: (§2) Compound E-TMC278 was tested in a cell-based assay, using natural host cells of HIV. MT-4 cells (a cell line of human T cells) were infected with HIV-1 (wild type or mutants) and exposed to different concentrations of antiviral compound in the presence of 10% fetal calf serum. Cytotoxicity was determined in parallel with the antiviral activity so that the selectivity of the antiviral effect could be assessed. Active compounds have to penetrate the cell membrane in order to interfere with replication steps inside the cell.
(§3) After four days of incubation at 37° C., the viability of the HIV and mock-infected cells was assessed by an automated tetrazolium-based calorimetric assay. This method enabled the calculation of both the 50% inhibitory concentration for inhibition of viral cytopathicity (IC50), the IC90, and the 50% cytotoxic concentration (CC50). The ratio CC50/IC50, also called the selectivity index, is an indication of the specificity of the antiviral effect. Tested HIV strains included: Wild type (wt) HIV-1; a panel of single and double mutants, obtained by site-directed mutagenesis (SDM), and a panel of clinical isolates, selected for resistance against NNRTIs.
(§4) A limited panel of HIV-1 mutants was constructed using site-directed mutagenesis (SDM) and homologous recombination techniques. […] Nevirapine (NVP) and efavirenz (EFV) were included as controls.

[6] = system: HIV-1 mutant 227L; experiment: MT-4 cell-based antiviral assay, SDM mutant; details: Human immunodeficiency virus 1, MT4
Procedure: as §2, §3, §4

[7] = system: HIV-1 mutant 234I; experiment: MT-4 cell-based antiviral assay, SDM mutant; details: Human immunodeficiency virus 1, MT4
Procedure: as §2, §3, §4

[8] = system: HIV-1 mutant 101E; experiment: MT-4 cell-based antiviral assay, SDM mutant; details: Human immunodeficiency virus 1, MT4
Procedure: as §2, §3, §4

[9] = system: HIV-1 mutant 188H; experiment: MT-4 cell-based antiviral assay, SDM mutant; details: Human immunodeficiency virus 1, MT4
Procedure: as §2, §3, §4

[10] = system: HIV-1 double mutant 103N + 181C; experiment: MT-4 cell-based antiviral assay, SDM mutant
Procedure: as §2, §3, §4

[11] = system: HIV-1 mutant 190A; experiment: MT-4 cell-based antiviral assay, SDM mutant; details: Human immunodeficiency virus 1, MT4
Procedure: as §2, §3, §4

[12] = system: HIV-1 double mutant 227L + 106A; experiment: MT-4 cell-based antiviral assay, SDM mutant
Procedure: as §2, §3, §4

[13] = system: HIV-1 mutant 236L; experiment: MT-4 cell-based antiviral assay, SDM mutant; details: Human immunodeficiency virus 1, MT4
Procedure: as §2, §3, §4

[14] = system: HIV-1 mutant 225H; experiment: MT-4 cell-based antiviral assay, SDM mutant; details: Human immunodeficiency virus 1, MT4
Procedure: as §2, §3, §4

[15] = system: HIV-1 double mutant 100I + 103N; experiment: MT-4 cell-based antiviral assay, SDM mutant
Procedure: as §2, §3, §4

[16] = system: HIV-1 mutant 103N; experiment: MT-4 cell-based antiviral assay, SDM mutant
Procedure: as §2, §3, §4

[17] = system: HIV-1 double mutant 101E + 103N; experiment: MT-4 cell-based antiviral assay, SDM mutant; details: Human immunodeficiency virus 1, MT4, 96 h
Procedure: as §2, §3, §4

[18] = system: HIV-1 double mutant 103N + 181I; experiment: MT-4 cell-based antiviral assay, SDM mutant; details: Human immunodeficiency virus 1, MT4, 96 h
Procedure: as §2, §3, §4

[19] = system: HIV-1 single mutant 103N; experiment: Development of resistance in vitro, starting from single mutant; type: cell-based; details: starting from 103N
Description: as §1

[20] = system: HIV-1 single mutant Y181C; experiment: as above; type: cell-based
Description: as §1

[21] = system: HIV-1 wild type; experiment: MT-4 cell-based antiviral assay (viral cytopathicity, tetrazolium); details: Human immunodeficiency virus 1, MT4, wild type virus
Procedure: as §2, §3

[22] = Phase I single oral dose trials: safety, tolerability, pharmacokinetics; type: in vivo, human; details: for Cmax / half-life / Tmax: human, plasma; for half-life / Tmax: male
Procedure: Oral doses of 12.5, 25, and 50 mg were formulated in PEG 400 and taken with a standard meal.
There was a time interval of about 14 days between each dosing session

[23] = Cardiovascular and pulmonary safety in vivo; details: plasma levels covering and exceeding the targeted plasma levels in man
[24] = Human immunodeficiency virus 1, MT4
[25] = Human immunodeficiency virus 1, MT4, read-out: IC50 value
[26] = single oral doses, healthy volunteers

Which results are given for Cc1cc(/C=C/C#N)cc(C)c1Nc1ccnc(Nc2ccc(C#N)cc2)n1 [E-TMC278, (E)-4-[[4-[[4-(2-cyanoethenyl)-2,6-dimethylphenyl]-amino]-2-pyrimidinyl]-amino]-benzonitrile]?
emergence of resistance [1]: resistance did emerge at all tested concentrations; time to emergence of resistant virus [2]: > 30 days; EC50 [3]: 0.55 nM; effect on cardiovascular and pulmonary parameters in vitro [4]: little or no effect; IC50 [5, 24]: 2 nM; IC50 [5, 25]: 2 nM; IC50 [6]: 0.3 nM; IC50 [7]: 0.3 nM; IC50 [8]: 1.6 nM; IC50 [9]: 0.2 nM; IC50 [10, 24]: 0.8 nM; IC50 [10, 25]: 1 nM; IC50 [11]: 0.3 nM; IC50 ([12]; Human immunodeficiency virus 1, MT4, 96 h): 1 nM; IC50 [12, 25]: 1 nM; IC50 [13]: 0.3 nM; IC50 [14]: 0.3 nM; IC90 [15, 24]: ~16 nM; IC50 ([15]; Human immunodeficiency virus 1, MT4, 96 h, 100I + 103N, MT-4 cells): ~8 nM; IC50 ([15]; Human immunodeficiency virus 1, MT4, read-out: IC50 value, Table 1, HIV RT mutation: 100I + 103N): 7.9 nM; IC50 [16, 24]: 0.3 nM; IC50 [16, 25]: 0.3 nM; IC50 [17]: 0.5 nM; IC50 [18]: 1 nM; virus breakthrough ([19]; at 10 nM): did occur; virus breakthrough ([19]; at 40 and 200 nM): did not occur; virus breakthrough ([20]; at 10 nM): did occur; virus breakthrough ([20]; at 40 and 200 nM): did not occur; IC90 [21]: 1.3 nM and 0.00048 µg/mL; IC50 ([21]; read-out: IC50): 0.15 ng/mL (≈ 0.409 nM); correlation coefficient for AUC0-48 hr (dose proportionality) ([22]; 12.5-200 mg): 0.9952; correlation coefficient for the 5 Cmax datapoints (dose proportionality) ([22]; 12.5-200 mg): 0.9897; Cmax ([22]; single oral dose 25 mg in PEG 400 with standard meal, healthy male volunteers): 149 ± 32 ng/mL; Cmax ([22]; single oral dose 50 mg in PEG 400 with standard meal, healthy male volunteers): 267 ± 27 ng/mL; Cmax ([22]; single oral dose 100 mg, healthy male subjects): 482 ± 121 ng/mL; Cmax ([22]; single oral dose 200 mg, healthy male subjects): 807 ± 207 ng/mL; half-life ([22]; across single oral doses, read-out: Half-life of plasma concentrations): 37 to 39 h; Tmax ([22]; single oral dose 12.5 mg): 4 h; half-life ([22]; single oral dose 12.5 mg, read-out: T1/2 (converted)): 37.1 h; Tmax ([22]; single oral dose 25 mg): 4 ± 1.3 h; half-life ([22]; single oral dose 25 mg, read-out: T1/2 (converted)): 38.7 h; Tmax ([22]; single oral dose 50 mg): 4 ± 1.3 h; half-life ([22]; single oral dose 50 mg, read-out: T1/2 (converted)): 45 ± 9 h; Tmax ([22]; single oral dose 100 mg): 4.3 ± 0.8 h; half-life ([22]; single oral dose 100 mg, read-out: T1/2 (converted)): 55 ± 18 h; Tmax ([22]; single oral dose 200 mg): 4.3 ± 0.8 h; Adverse effects [22, 26]: No relevant adverse effects; Tolerability [22, 26]: well tolerated; effect on cardiovascular and pulmonary parameters in vivo [23]: little or no effect
